Reference: PubChem BioAssay (NCI)
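Tested at 5 concentrations; 48 h exposure; 96-well plates; endpoints linearly interpolated, else capped at highest concentration. GI50: concentration for 50% inhibition of growth. TGI denotes the concentration required for complete inhibition of growth.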

Columns and labels:
Experiment in all cases: NCI-60 cell line screen, 48 h
HCT-15 colon = system: HCT-15 colon
HL-60(TB) leukemia = system: HL-60(TB) leukemia
HOP-62 NSCLC = system: HOP-62 NSCLC
HT29 colon = system: HT29 colon
NCI-H522 lung = system: NCI-H522 lung
NCI/ADR-RES ovarian = system: NCI/ADR-RES ovarian
OVCAR-5 ovarian = system: OVCAR-5 ovarian
SNB-19 CNS = system: SNB-19 CNS
TK-10 renal = system: TK-10 renal
UO-31 renal = system: UO-31 renal

Compound	TGI (HCT-15 colon) [nM]	TGI (HL-60(TB) leukemia) [nM]	TGI (HOP-62 NSCLC) [nM]	TGI (HT29 colon) [nM]	TGI (NCI-H522 lung) [nM]	TGI (NCI/ADR-RES ovarian) [nM]	TGI (OVCAR-5 ovarian) [nM]	TGI (SNB-19 CNS) [nM]	TGI (TK-10 renal) [nM]	TGI (UO-31 renal) [nM]	GI50 (HCT-15 colon) [nM]	GI50 (HL-60(TB) leukemia) [nM]	GI50 (HOP-62 NSCLC) [nM]	GI50 (HT29 colon) [nM]	GI50 (NCI-H522 lung) [nM]	GI50 (NCI/ADR-RES ovarian) [nM]	GI50 (OVCAR-5 ovarian) [nM]	GI50 (SNB-19 CNS) [nM]	GI50 (TK-10 renal) [nM]	GI50 (UO-31 renal) [nM]
N#CC(NC12CC3CC(CC(C3)C1)C2)c1ccccc1 (stereo not drawn)	> 100000	> 100000	> 100000	> 100000	> 100000	> 100000	> 100000	> 100000	> 100000	> 100000										
C[C@H]1O[C@@H](O[C@H]2[C@@H](O)C[C@H](O[C@H]3[C@@H](O)C[C@H](O[C@H]4CC[C@]5(C)C6C[C@@H](O)[C@]7(C)[C@@H](C8=CC(=O)OC8)CC[C@]7(O)C6CC[C@@H]5C4)O[C@@H]3C)O[C@@H]2C)C[C@H](O)[C@@H]1O (stereo partly drawn)	366	120	102	293	69.5	147	286	678	213	166	128	34	38	89.3	15	55.2	114	175	26.6	83.6
N#Cc1cc(-c2ccccc2)[nH]c1-c1nccc2ccccc12	> 100000	82600	> 100000	> 100000	98000	> 100000	> 100000	> 100000	> 100000	> 100000	20600	8520	29000	30500	12400	6440	31700	31300	25300	6810
CC(C)[C@@H]1NC(=O)[C@]2(C)CSC(=N2)c2csc(n2)CNC(=O)C[C@@H](/C=C/CCS)OC1=O	> 100000	> 100000	> 29100	> 100000	3750	> 100000	> 100000	> 44300	1350	6500	5120	361	45.3	183	165	2670	82.9	168	86.4	605
CC(/C=C/C=C/C=C/C=C/C=C/C(O)=C1/C(=O)C(CCC(=O)O)N(C)C1=O)=C\C(C)C(OC1CC(O)C(O)C(C)O1)C(C)C (stereo not drawn)	19400	6070	3680	14000	7350	50200	7830	9440	7920	13500										
Clc1ccc(N/N=C/c2ccccn2)nc1	> 100000	1310	> 80300	> 100000	37400	> 100000	> 94300	> 100000	> 100000	1570	333	318	421	574	323	383	433	674	442	303
NCC(=O)Nc1ccc(-n2nc(C(F)(F)F)cc2-c2ccc3c(ccc4ccccc43)c2)cc1	1710	3420	2740	2270	2710	3120	2950		2870	2610	142	1300	1320	937	1320	1120	1560		1490	1320
